The nature of series [1]: Microsomal stability in human liver microsomes assessed as parent compound remaining measured after 60 mins. It is filed as ADME, Microsome. Conditions: 1 h. In general terms: Liver microsomes are vesicles of endoplasmic reticulum, rich in cytochrome P450 enzymes.
Series [2] can be described thus: Microsomal stability in human liver microsomes assessed as parent compound remaining measured immediately. The format is ADME, Microsome.
The nature of series [3]: Microsomal stability in human liver microsomes assessed as parent compound remaining measured after 15 mins. Conditions: 0.25 h. The format is ADME, Microsome.
The nature of series [4]: Microsomal stability in human liver microsomes assessed as parent compound remaining measured after 120 mins. Conditions: 2 h. It is filed as ADME, Microsome.
A short description of series [5]: Microsomal stability in human liver microsomes assessed as parent compound remaining measured after 30 mins. The format is ADME, Microsome. Conditions: 0.5 h.
In series [6] the target is D(1B) dopamine receptor (Homo sapiens) (UniProt P21918). Kind of series: Inhibition of human D5 receptor relative to control. Also on record: concentration or dose not given beside the values. The settings on record: concentration not given here.
In series [7] the target is T1, 5-hydroxytryptamine receptor 1A (Homo sapiens, UniProt P08908).
T1 sequence (P08908 whole entry): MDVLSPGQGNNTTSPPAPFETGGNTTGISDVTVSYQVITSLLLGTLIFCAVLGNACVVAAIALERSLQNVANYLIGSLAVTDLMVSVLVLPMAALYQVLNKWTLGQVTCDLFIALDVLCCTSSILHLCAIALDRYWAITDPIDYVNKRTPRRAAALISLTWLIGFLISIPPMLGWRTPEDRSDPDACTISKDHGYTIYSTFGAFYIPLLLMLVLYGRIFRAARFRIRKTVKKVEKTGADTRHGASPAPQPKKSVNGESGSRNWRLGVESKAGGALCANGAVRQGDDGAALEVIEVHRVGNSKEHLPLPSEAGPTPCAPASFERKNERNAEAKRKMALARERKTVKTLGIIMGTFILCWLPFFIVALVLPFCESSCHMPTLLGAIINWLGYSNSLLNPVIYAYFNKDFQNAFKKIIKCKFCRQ
The series can be described thus: Binding affinity to human 5HT1A receptor.

For series [8], the target named is T2, D(2) dopamine receptor (Homo sapiens, UniProt P14416). The series can be described thus: Binding affinity to human D2 receptor.
In series [9] the target is T3, 5-hydroxytryptamine receptor 2A (Homo sapiens, UniProt P28223).
Description: Binding affinity to human 5HT2A receptor
In series [10] the target is T4, D(1A) dopamine receptor (Homo sapiens, UniProt P21728). The series can be described thus: Binding affinity to human D1 receptor.
In series [11] the target is T2, D(2) dopamine receptor. Kind of series: Inhibition of human D2 receptor relative to control. Set-up: concentration or dose not given beside the values. Conditions: concentration not given here.
For series [12], the target named is T3, 5-hydroxytryptamine receptor 2A. The series can be described thus: Inhibition of human 5HT2A receptor relative to control. Also on record: concentration or dose not given beside the values. The settings on record: concentration not given here.
In series [13] the target is T4, D(1A) dopamine receptor. Kind of series: Inhibition of human D1 receptor relative to control. Also on record: concentration or dose not given beside the values. The settings on record: concentration not given here.
The target of series [14] is T5, 5-hydroxytryptamine receptor 1A (Homo sapiens) (UniProt P08908).
T5 sequence (whole entry): T1 sequence (P08908 whole entry)
The series can be described thus: Inhibition of human 5HT1A receptor relative to control. Also on record: concentration or dose not given beside the values. Conditions: concentration not given here.

A word on the inhibition: it is the change of the read-out against control, counted positive when it falls. Broadly, the Ki is a dissociation constant, usually derived from enzyme kinetics or from competition with a known ligand.

T3 sequence (P28223 whole entry): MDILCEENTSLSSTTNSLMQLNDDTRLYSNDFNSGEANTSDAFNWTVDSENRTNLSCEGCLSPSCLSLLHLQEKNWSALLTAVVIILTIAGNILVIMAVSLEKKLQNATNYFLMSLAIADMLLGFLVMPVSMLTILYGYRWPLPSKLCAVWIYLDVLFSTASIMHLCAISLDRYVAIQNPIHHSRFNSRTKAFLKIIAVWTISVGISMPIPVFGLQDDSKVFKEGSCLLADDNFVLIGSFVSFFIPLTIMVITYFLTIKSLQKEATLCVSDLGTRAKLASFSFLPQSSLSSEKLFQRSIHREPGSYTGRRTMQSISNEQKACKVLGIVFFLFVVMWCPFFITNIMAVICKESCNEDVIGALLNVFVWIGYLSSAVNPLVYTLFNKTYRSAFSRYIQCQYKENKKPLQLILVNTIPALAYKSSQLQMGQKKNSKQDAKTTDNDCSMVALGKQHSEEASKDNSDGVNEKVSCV
T2 sequence (P14416 whole entry): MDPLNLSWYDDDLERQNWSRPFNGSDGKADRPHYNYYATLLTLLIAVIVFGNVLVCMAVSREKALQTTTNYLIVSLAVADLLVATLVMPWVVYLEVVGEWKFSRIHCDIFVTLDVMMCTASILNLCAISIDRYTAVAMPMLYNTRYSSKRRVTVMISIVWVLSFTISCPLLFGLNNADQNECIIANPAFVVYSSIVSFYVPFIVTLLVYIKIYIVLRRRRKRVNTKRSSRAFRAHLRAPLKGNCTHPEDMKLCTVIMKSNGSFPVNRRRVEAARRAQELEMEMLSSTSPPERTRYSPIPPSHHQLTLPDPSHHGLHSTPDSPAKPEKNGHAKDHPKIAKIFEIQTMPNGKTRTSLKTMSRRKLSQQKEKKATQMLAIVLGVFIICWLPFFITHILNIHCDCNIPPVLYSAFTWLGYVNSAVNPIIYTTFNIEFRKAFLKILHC
T4 sequence (P21728 whole entry): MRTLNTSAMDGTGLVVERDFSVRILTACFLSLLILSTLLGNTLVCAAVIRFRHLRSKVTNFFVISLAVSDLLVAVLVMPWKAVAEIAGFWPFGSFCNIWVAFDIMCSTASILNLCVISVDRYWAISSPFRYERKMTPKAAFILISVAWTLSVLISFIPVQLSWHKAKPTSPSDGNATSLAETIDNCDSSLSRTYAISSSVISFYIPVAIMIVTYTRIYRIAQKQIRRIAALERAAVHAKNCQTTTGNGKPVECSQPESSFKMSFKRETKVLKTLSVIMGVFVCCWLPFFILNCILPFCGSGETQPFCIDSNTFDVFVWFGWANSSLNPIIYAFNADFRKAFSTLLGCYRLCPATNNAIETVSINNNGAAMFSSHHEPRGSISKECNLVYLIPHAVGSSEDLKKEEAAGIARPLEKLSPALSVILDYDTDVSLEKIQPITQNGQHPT
D(1B) dopamine receptor (Homo sapiens), sequence (P21918 whole entry): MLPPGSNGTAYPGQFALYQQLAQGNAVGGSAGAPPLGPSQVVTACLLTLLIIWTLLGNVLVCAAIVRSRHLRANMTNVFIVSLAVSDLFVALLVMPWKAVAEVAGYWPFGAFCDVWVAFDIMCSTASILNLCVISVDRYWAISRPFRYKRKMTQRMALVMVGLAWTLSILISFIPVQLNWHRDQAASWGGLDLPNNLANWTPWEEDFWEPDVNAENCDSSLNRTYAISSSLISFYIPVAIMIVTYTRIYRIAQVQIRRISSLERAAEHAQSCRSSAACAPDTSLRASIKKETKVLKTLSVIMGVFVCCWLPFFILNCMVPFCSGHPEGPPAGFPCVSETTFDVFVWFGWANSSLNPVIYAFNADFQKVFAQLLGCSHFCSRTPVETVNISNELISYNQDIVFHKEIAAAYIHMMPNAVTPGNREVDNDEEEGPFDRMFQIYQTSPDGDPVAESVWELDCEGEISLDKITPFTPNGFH

Consider `CC(C)[N+](C)(CCOC(=O)C1c2ccccc2Oc2ccccc21)C(C)C` [PROPANTHELINE], for which the Stability is given as 6.4% in series [1]; 100% in series [2]; 65.33% in [3]; 0.16% in series [4]; 36.32% in series [5].
`C#CCOc1c(OC)cc2c3c1-c1cc(N)ccc1CC3N(C)CC2` (stereo not drawn) came in with an inhibition in series [6] of less than 50%. The inhibition constant (Ki) worked out at 428 nM in series [7], 431 nM in series [8], 378 nM in [9] and 709 nM in series [10].
As for `C=CCOc1c(OC)cc2c3c1-c1cc([N+](=O)[O-])ccc1CC3N(C)CC2` (stereo not drawn), the inhibition in series [6], in series [11], in series [12] and in series [13] was less than 50% in each case. Moreover, affinity in [7] was put at a Ki of 1680 nM.
As to `CCCC(=O)Nc1ccc2c(c1)-c1cccc3c1C(C2)N(C)CC3` (stereo not drawn), the inhibition in [6], in series [11], in series [12] and in [13] was less than 50% each time. In addition, the affinity in [7], expressed as Ki, was 83 nM.
As to `COc1cc2c3c(c1OC1CC1)-c1cc(N)ccc1CC3N(C)CC2` (stereo not drawn), the inhibition in series [6] and in series [14] was less than 50% throughout. Moreover, the inhibition constant (Ki) in series [8] turned out to be 963 nM; in series [9], 110 nM; in series [10] it was 1110 nM.
Turning to `C#CCOc1c(OC)cc2c3c1-c1cc(NC(C)=O)ccc1CC3N(C)CC2` (stereo not drawn), the inhibition in series [6] and in series [14] was less than 50% in each case. Moreover, the Stability stood at 95.6% in series [1]; 100% in [2]; 99.76% in [3]; 102.69% in series [4]; 97.8% in [5]. For the same compound, the Ki in series [8] was 854 nM; in [9], 1270 nM; in [10], 58 nM.
In series [6], `COc1cc2c3c(c1OC)-c1cc([N+](=O)[O-])ccc1CC3N(C)CC2` (stereo not drawn) returned an inhibition of less than 50%. In addition, the Ki in [7] came to 458 nM; in series [8], 478 nM; in series [9] it was 1350 nM; in series [10], 726 nM.
`C=CCOc1c(OC)cc2c3c1-c1cc(NC(C)=O)ccc1CC3N(C)CC2` (stereo not drawn): the inhibition in series [6], in series [11] and in series [14] was less than 50% throughout. Further, the Ki in series [9] is 1220 nM; in series [10], 155 nM.
On to `C#CCOc1c(OC)cc2c3c1-c1cc([N+](=O)[O-])ccc1CC3N(C)CC2` (stereo not drawn), for which the inhibition in [6] and in series [12] was less than 50% in each case. The inhibition constant Ki in series [7] is 206 nM; in [8], 2050 nM; in series [10] it was 536 nM.
As for `O=[N+]([O-])c1ccc2c(c1)-c1cccc3c1C(C2)NCC3` (stereo not drawn), the inhibition in series [6], in series [11], in [12] and in [13] was less than 50% throughout. Further, the affinity in series [7], expressed as Ki, was 350 nM.
Turning to `COc1cc2c3c(c1OC1CC1)-c1cc([N+](=O)[O-])ccc1CC3N(C)CC2` (stereo not drawn), the inhibition in series [6], in [11], in [12] and in series [13] was less than 50% throughout. This compound had an inhibitory constant (Ki) in [7] of 439 nM.
As for `CN1CCc2cccc3c2[C@H]1Cc1ccc(O)c(O)c1-3` [APOMORPHINE], the Stability was determined as 80.43% in series [1]; 100% in series [2]; 89.33% in [3]; 36.68% in series [4]; 99.73% in series [5].
Consider `COc1cc2c3c(c1OC)-c1cc(N)ccc1CC3N(C)CC2` (stereo not drawn), for which, in series [6], the inhibition is less than 50%. Further, the Ki in [7] was found to be 156 nM; in [8] it was 260 nM; in series [9] it was 585 nM; in series [10] it was 691 nM.
`COc1cc2c3c(c1O)-c1cc(N)ccc1CC3N(C)CC2` (stereo not drawn): the Ki in series [9] stood at 850 nM; in [10] it was 301 nM. In addition, the inhibition in series [14] is less than 50%.
With `COc1cc2c3c(c1OC)-c1cc(NC(C)=O)ccc1CC3N(C)CC2` (stereo not drawn), the inhibition in series [6], in series [12] and in [14] was less than 50% in each case. In addition, the values for the inhibitory constant (Ki) in [8] and in [10] were 978 nM and 756 nM, respectively.
For `CN1CCc2cccc3c2C1Cc1ccc([N+](=O)[O-])cc1-3` (stereo not drawn), the inhibition in series [6], in series [11] and in series [12] was less than 50% throughout. The Ki in [7] was 100 nM; in [10], 928 nM.
On to `CN1CCc2cccc3c2C1Cc1ccc(N)cc1-3` (stereo not drawn), for which the inhibition in series [6] and in series [13] was less than 50% each time. Further, the results for the inhibitory constant (Ki) in series [7], in series [8] and in series [9] were 269 nM, 679 nM and 672 nM, respectively.
As for `C=CCOc1c(OC)cc2c3c1-c1cc(N)ccc1CC3N(C)CC2` (stereo not drawn), the inhibition in [6] and in [14] was less than 50% in each case. For the same compound, the values for the Ki in [8], in [9] and in series [10] were 759 nM, 234 nM and 830 nM, respectively.
For `CC(=O)Nc1ccc2c(c1)-c1cccc3c1C(C2)N(C)CC3` (stereo not drawn), the inhibition in [6], in series [11] and in series [13] was less than 50% each time. Moreover, the inhibition constant (Ki) was determined as 93 nM in series [7] and 1060 nM in series [9].
In series [6], `COc1cc2c3c(c1O)-c1cc([N+](=O)[O-])ccc1CC3N(C)CC2` (stereo not drawn) returned an inhibition of less than 50%. The Ki turned out to be 548 nM in [7], 320 nM in series [8], 908 nM in series [9] and 316 nM in series [10].

The values above are taken from ChEMBL document CHEMBL4627308, “Identification of C10 nitrogen-containing aporphines with dopamine D1 versus D5 receptor selectivity” (Bioorg Med Chem Lett, 2020).
